Assay results reported in patent US20230102554A1 (GB002, INC., priority 2019, published 2023).
pIC50: −log10 of the molar value.

How the values were obtained:
[1] = target: T1, Human PDGFRα, cytoplasmic domain (GST-PDGFRα) (Homo sapiens, UniProt P16234); assay: Human PDGFRα biochemical inhibition assay (off-chip Mobility Shift Assay)
T1 construct: made in house

[2] = target: T2, Human PDGFRβ, cytoplasmic domain (GST-PDGFRβ) (Homo sapiens, UniProt P09619); assay: Human PDGFRβ biochemical inhibition assay (off-chip Mobility Shift Assay)
T2 construct: made in house
T2 sequence (P09619 with tags, fused parts or gaps): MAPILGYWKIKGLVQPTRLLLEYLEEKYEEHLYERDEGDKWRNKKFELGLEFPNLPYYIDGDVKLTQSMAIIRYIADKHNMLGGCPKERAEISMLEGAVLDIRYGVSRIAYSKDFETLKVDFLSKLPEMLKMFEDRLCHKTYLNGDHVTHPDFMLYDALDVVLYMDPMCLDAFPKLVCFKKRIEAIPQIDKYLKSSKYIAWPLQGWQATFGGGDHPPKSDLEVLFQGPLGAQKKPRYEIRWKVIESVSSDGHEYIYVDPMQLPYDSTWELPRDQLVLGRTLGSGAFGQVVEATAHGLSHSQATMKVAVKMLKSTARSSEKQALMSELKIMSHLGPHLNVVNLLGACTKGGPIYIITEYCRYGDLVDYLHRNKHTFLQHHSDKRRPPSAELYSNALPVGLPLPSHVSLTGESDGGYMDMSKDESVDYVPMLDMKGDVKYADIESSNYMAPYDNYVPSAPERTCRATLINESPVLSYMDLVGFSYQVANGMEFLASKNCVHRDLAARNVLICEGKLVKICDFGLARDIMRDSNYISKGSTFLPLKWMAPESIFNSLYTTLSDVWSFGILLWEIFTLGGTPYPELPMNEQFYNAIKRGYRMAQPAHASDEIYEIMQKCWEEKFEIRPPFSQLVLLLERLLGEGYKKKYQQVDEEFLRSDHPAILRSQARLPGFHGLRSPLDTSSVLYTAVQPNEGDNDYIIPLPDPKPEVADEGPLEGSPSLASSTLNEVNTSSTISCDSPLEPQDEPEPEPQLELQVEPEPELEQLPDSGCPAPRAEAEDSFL
Summary of the method: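 GST-tagged cytoplasmic domain (aa 557-1106) from baculovirus was incubated 1 h at room temperature with compound, CSKtide, ATP at Km and Mg²⁺ in HEPES buffer, pH 7.5. Phosphorylated and unphosphorylated peptide were separated by off-chip mobility shift, and the product ratio P/(P+S) gave percent inhibition.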

T1 sequence (P16234 550-1089 T674I): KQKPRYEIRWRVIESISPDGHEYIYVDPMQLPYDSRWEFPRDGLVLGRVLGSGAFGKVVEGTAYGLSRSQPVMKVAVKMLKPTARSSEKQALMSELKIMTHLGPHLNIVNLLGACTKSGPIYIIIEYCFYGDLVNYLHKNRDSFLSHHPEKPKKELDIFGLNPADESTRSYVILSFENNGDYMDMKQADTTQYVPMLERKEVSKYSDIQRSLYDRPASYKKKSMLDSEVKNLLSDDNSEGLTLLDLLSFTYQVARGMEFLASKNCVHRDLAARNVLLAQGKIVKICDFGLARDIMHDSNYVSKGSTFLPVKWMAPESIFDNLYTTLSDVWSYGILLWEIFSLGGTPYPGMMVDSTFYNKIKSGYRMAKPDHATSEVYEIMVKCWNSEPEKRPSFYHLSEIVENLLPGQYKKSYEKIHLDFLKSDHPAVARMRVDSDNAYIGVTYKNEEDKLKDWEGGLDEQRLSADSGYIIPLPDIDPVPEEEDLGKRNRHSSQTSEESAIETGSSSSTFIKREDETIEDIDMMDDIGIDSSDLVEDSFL

Row | pIC50 [1] | pIC50 [2] | SMILES
1 | 6.00 to 6.52 | ≤ 6.00 | CCn1cc2ncc(N[C@@H](C)c3cccc(NC(=O)c4ccc5c(c4)CN(C)C5)c3)nc2n1 [Compound 449, (S)-N-(3-(1-((2-ethyl-2H-pyrazolo[3,4-b]pyrazin-6-yl)amino)ethyl)phenyl)-2-methylisoindoline-5-carboxamide]
2 | > 6.52 | > 6.52 | C[C@H](Nc1cnc2cnn(C)c2n1)c1cccc(NC(=O)c2cc(C(C)(C)C)nn2C)c1 [Compound 159, (S)-3-(tert-butyl)-1-methyl-N-(3-(1-((1-methyl-1H-pyrazolo[3,4-b]pyrazin-6-yl)amino)ethyl)phenyl)-1H-pyrazole-5-carboxamide]
3 | > 6.52 | > 6.52 | CCn1cc2ncc(N[C@@H](C)c3cccc(NC(=O)c4ccc(CN5CC(F)C5)c(C)c4)c3)nc2n1 [Compound 497, (S)-N-(3-(1-((2-ethyl-2H-pyrazolo[3,4-b]pyrazin-6-yl)amino)ethyl)phenyl)-4-((3-fluoroazetidin-1-yl)methyl)-3-methylbenzamide]
4 | 6.00 to 6.52 | 6.00 to 6.52 | Cc1cncc(C(=O)Nc2cccc([C@H](C)Nc3cnc4[nH]cnc4n3)c2)c1 [Compound 23, (S)—N-(3-(1-((1H-imidazo[4,5-b]pyrazin-5-yl)amino)ethyl)phenyl)-5-methylnicotinamide]
5 | > 6.52 | 6.00 to 6.52 | CCNc1ncc(C(=O)Nc2cccc([C@H](C)Nc3cnc4cn(CC)nc4n3)c2)cc1C [Compound 333, (S)-N-(3-(1-((2-ethyl-2H-pyrazolo[3,4-b]pyrazin-6-yl)amino)ethyl)phenyl)-6-(ethylamino)-5-methylnicotinamide]
6 | > 6.52 | > 6.52 | CCn1cc2ncc(N[C@@H](C)c3cc(NC(=O)Cc4ccc(Cl)c(C)n4)ccc3F)nc2n1 [Compound 668, (S)-2-(5-chloro-6-methylpyridin-2-yl)-N-(3-(1-((2-ethyl-2H-pyrazolo[3,4-b]pyrazin-6-yl)amino)ethyl)-4-fluorophenyl)acetamide]
7 | > 6.52 | > 6.52 | CCn1cc2ncc(N[C@@H](C)c3cc(NC(=O)c4ccc(CN5CCN(C)CC5)c(C)c4)ccc3C)nc2n1 [Compound 524, (S)-N-(3-(1-((2-ethyl-2H-pyrazolo[3,4-b]pyrazin-6-yl)amino)ethyl)-4-methylphenyl)-3-methyl-4-((4-methylpiperazin-1-yl)methyl)benzamide]
8 | > 6.52 | > 6.52 | COc1cncc(C(=O)Nc2cccc([C@H](C)Nc3cnc4[nH]cc(-c5cnn(C)c5)c4n3)c2)c1 [Compound 586, (S)-5-methoxy-N-(3-(1-((7-(1-methyl-1H-pyrazol-4-yl)-5H-pyrrolo[2,3-b]pyrazin-2-yl)amino)ethyl)phenyl) nicotinamide]
9 | > 6.52 | 6.00 to 6.52 | CCn1cc2ncc(N[C@@H](C)c3cccc(NC(=O)Cc4ccc(Cl)c(F)c4)c3)nc2n1 [Compound 627, (S)-2-(4-chloro-3-fluorophenyl)-N-(3-(1-((2-ethyl-2H-pyrazolo[3,4-b]pyrazin-6-yl)amino)ethyl)phenyl)acetamide]
10 | > 6.52 | > 6.52 | Cc1cncc(C(=O)Nc2cccc([C@H](C)Nc3cnc4cnn(C5CCC5)c4n3)c2)c1 [Compound 178, (S)-N-(3-(1-((1-cyclobutyl-1H-pyrazolo[3,4-b]pyrazin-6-yl)amino)ethyl)phenyl)-5-methylnicotinamide]
11 | ≤ 6.00 | ≤ 6.00 | Cc1cncc(C(=O)Nc2cccc([C@H](C)Nc3cnn4ccccc34)c2)c1 [Compound 20, (S)-5-methyl-N-(3-(1-(pyrazolo[1,5-a]pyridin-3-ylamino)ethyl)phenyl)nicotinamide]
12 | > 6.52 | ≤ 6.00 | CCn1cc2ncc(N[C@@H](C)c3cccc(NC(=O)Cc4ccc(C)cn4)c3)nc2n1 [Compound 25, (S)—N-(3-(1-((2-ethyl-2H-pyrazolo[3,4-b]pyrazin-6-yl)amino)ethyl)phenyl)-2-(5-methylpyridin-2-yl)acetamide]
13 | > 6.52 | > 6.52 | COc1ccc(C(=O)Nc2cccc([C@H](C)Nc3cnc4cnn(C)c4n3)c2)cc1F [Compound 189, (S)-3-fluoro-4-methoxy-N-(3-(1-((1-methyl-1H-pyrazolo[3,4-b]pyrazin-6-yl)amino)ethyl)phenyl)benzamide]
14 | > 6.52 | > 6.52 | CCn1cc2ncc(N[C@@H](C)c3cc(NC(=O)Cc4cc(C)ccn4)ccc3C)nc2n1 [Compound 679, (S)-N-(3-(1-((2-ethyl-2H-pyrazolo[3,4-b]pyrazin-6-yl)amino)ethyl)-4-methylphenyl)-2-(4-methylpyridin-2-yl) acetamide]
15 | > 6.52 | > 6.52 | CCn1cc2ncc(N[C@@H](C)c3cc(NC(=O)c4ccc(CN5CCCC5)c(C(F)(F)F)c4)ccc3F)nc2n1 [Compound 443, (S)-N-(3-(1-((2-ethyl-2H-pyrazolo[3,4-b]pyrazin-6-yl)amino)ethyl)-4-fluorophenyl)-4-(pyrrolidin-1-ylmethyl)-3-(trifluoromethyl)benzamide]
16 | > 6.52 | > 6.52 | Cc1cc(C(=O)Nc2cccc([C@H](C)Nc3cnc4cnn(C)c4n3)c2)cnc1C [Compound 206, (S)-5,6-dimethyl-N-(3-(1-((1-methyl-1H-pyrazolo[3,4-b]pyrazin-6-yl)amino)ethyl)phenyl)nicotinamide]
17 | > 6.52 | > 6.52 | CCn1cc2ncc(N[C@@H](C)c3cc(NC(=O)Cc4cc(F)ccc4F)ccc3C)nc2n1 [Compound 702, (S)-2-(2,5-difluorophenyl)-N-(3-(1-((2-ethyl-2H-pyrazolo[3,4-b]pyrazin-6-yl)amino)ethyl)-4-methylphenyl)acetamide]
18 | > 6.52 | > 6.52 | CCn1cc2ncc(N[C@@H](C)c3cccc(NC(=O)c4cnc(N5CCN(C)CC5)c(C)c4)c3)nc2n1 [Compound 396, (S)-N-(3-(1-((2-ethyl-2H-pyrazolo[3,4-b]pyrazin-6-yl)amino)ethyl)phenyl)-5-methyl-6-(4-methylpiperazin-1-yl) nicotinamide]
19 | > 6.52 | ≤ 6.00 | CCn1cc2ncc(N[C@@H](C)c3cc(NC(=O)Cc4cnc(C)c(F)c4)ccc3F)nc2n1 [Compound 706, (S)-N-(3-(1-((2-ethyl-2H-pyrazolo[3,4-b]pyrazin-6-yl)amino)ethyl)-4-fluorophenyl)-2-(5-fluoro-6-methylpyridin-3-yl) acetamide]
20 | > 6.52 | > 6.52 | Cc1cc(C(=O)Nc2cccc([C@H](C)Nc3cnc4cnn(C)c4n3)c2)cnc1C(F)F [Compound 190, (S)-6-(difluoromethyl)-5-methyl-N-(3-(1-((1-methyl-1H-pyrazolo[3,4-b]pyrazin-6-yl)amino)ethyl)phenyl) nicotinamide]
21 | > 6.52 | > 6.52 | Cc1cncc(C(=O)Nc2cccc([C@H](C)Nc3cnc4[nH]nc(C)c4n3)c2)c1 [Compound 16, (S)-5-methyl-N-(3-(1-((3-methyl-1H-pyrazolo[3,4-b]pyrazin-5-yl)amino)ethyl)phenyl)nicotinamide]
22 | > 6.52 | > 6.52 | CCn1cc2ncc(N[C@@H](C)c3cccc(NC(=O)c4cnc(C5CC5)s4)c3)nc2n1 [Compound 296, (S)-2-cyclopropyl-N-(3-(1-((2-ethyl-2H-pyrazolo[3,4-b]pyrazin-6-yl)amino)ethyl)phenyl)thiazole-5-carboxamide]
23 | > 6.52 | > 6.52 | C[C@H](Nc1cnc2[nH]ccc2n1)c1cccc(NC(=O)c2ccc(OC(F)F)nc2)c1 [Compound 595, (S)-N-(3-(1-((5H-pyrrolo[2,3-b]pyrazin-2-yl)amino)ethyl)phenyl)-6-(difluoromethoxy)nicotinamide]
24 | > 6.52 | > 6.52 | CC(C)n1ccc(C(=O)Nc2cccc([C@H](C)Nc3cnc4cnn(C)c4n3)c2)n1 [Compound 156, (S)-1-isopropyl-N-(3-(1-((1-methyl-1H-pyrazolo[3,4-b]pyrazin-6-yl)amino)ethyl)phenyl)-1H-pyrazole-3-carboxamide]
25 | > 6.52 | > 6.52 | COc1cncc(C(=O)Nc2cccc([C@H](C)Nc3cnc4[nH]cc(C)c4n3)c2)c1 [Compound 555, (S)-5-methoxy-N-(3-(1-((7-methyl-5H-pyrrolo[2,3-b]pyrazin-2-yl)amino)ethyl)phenyl)nicotinamide]
26 | > 6.52 | > 6.52 | C[C@H](Nc1cnc2cn[nH]c2n1)c1cccc(NC(=O)c2cncc(C3COC3)c2)c1 [Compound 97, (S)-N-(3-(1-((1H-pyrazolo[3,4-b]pyrazin-6-yl)amino)ethyl)phenyl)-5-(oxetan-3-yl) nicotinamide]
27 | > 6.52 | > 6.52 | CCOc1ncc(C(=O)Nc2cccc([C@H](C)Nc3cnc4cnn(C)c4n3)c2)cc1C [Compound 129, (S)-6-ethoxy-5-methyl-N-(3-(1-((1-methyl-1H-pyrazolo[3,4-b]pyrazin-6-yl)amino)ethyl)phenyl)nicotinamide]
28 | > 6.52 | > 6.52 | Cc1c[nH]c2ncc(N[C@@H](C)c3cccc(NC(=O)c4cncc(Cl)c4)c3)nc12 [Compound 565, (S)-5-chloro-N-(3-(1-((7-methyl-5H-pyrrolo[2,3-b]pyrazin-2-yl)amino)ethyl)phenyl)nicotinamide]
29 | > 6.52 | > 6.52 | Cc1cncc(C(=O)Nc2cccc([C@H](C)Nc3cnc4cc(C(F)(F)F)ccc4n3)c2)c1 [Compound 35, (S)-5-methyl-N-(3-(1-((6-(trifluoromethyl)quinoxalin-2-yl)amino)ethyl)phenyl) nicotinamide]
30 | > 6.52 | > 6.52 | Cc1c[nH]c2ncc(N[C@@H](C)c3cccc(NC(=O)c4cnc(C5CC5)s4)c3)nc12 [Compound 571, (S)-2-cyclopropyl-N-(3-(1-((7-methyl-5H-pyrrolo[2,3-b]pyrazin-2-yl)amino)ethyl)phenyl)thiazole-5-carboxamide]
